Experimental data as given in ChEMBL document CHEMBL1153458, “Design, synthesis and evaluation of a novel cyclohexanamine class of neuropeptide Y Y1 receptor antagonists” (Bioorg Med Chem Lett, 2009).

Assay: physchem
Conditions: human

## COc1ccc([C@H](N[C@@H]2CC[C@@H](C(=O)N3CCC(C(=O)N4CCCC4)(c4ccccc4)CC3)C(C)(C)C2)C(F)(F)F)cc1
  pKa: 4.24

## COc1ccc([C@@H](C)N[C@@H]2CC[C@@H](C(=O)N3CCC(C(=O)N4CCCC4)(c4ccccc4)CC3)C(C)(C)C2)cc1
  pKa: 10.2
